# Assays:
# [1] = Thermodynamic solubility protocol 1 (PBS pH 7.4, citrate buffer pH 3.0); type: physicochemical; conditions: 25° C.
# Experimental: In a 8 mL glass vial, 1-2 mg of dry matter of the test compound were mixed with the suitable buffers (phosphate-buffered saline pH 7.4 (138 mM NaCl, 2.7 mM KCl, 10 mM K-phosphate) or 100 mM citrate buffer pH 3.0) to reach a theoretical concentration of 4 mM. The solutions were allowed to further equilibrate at 25° C. on a thermostatic shaker. After 4 and 24 hours of shaking, respectively, the incubation mixtures were filtered through HTS filter plates using a vacuum manifold. The filtrates of test compounds were diluted 2-fold with acetonitrile with 4% DMSO before measuring. In parallel, using a 20 mM DMSO stock solution, compound dilutions in 50% acetonitrile/buffer were prepared to the theoretical concentrations of 0 μM (blank), 10 μM, 25 μM, 50 μM, 100 μM and 200 μM with 2% final DMSO to generate calibration curves.
# Ondansetron (Sigma Aldrich USA, cat #03639) was used as a reference to control proper assay performance. 200 μl of each sample were transferred to a 96-well plate and solubility was measured in a 200-550 nm range (in steps of 5 nm). The measurements were performed using a Spectra Max Plus reader in UV-Vis mode. Acquisition and analysis of the data were performed using SoftMax Pro v.5.4 (Molecular Devices) and Excel 2010 data analysis software. Proper absorbance wavelengths for calculations were selected for each compound manually based on absorbance maximums (absolute absorbance unit values for the minimum and maximum concentration points within 0-3 OD range). Each of the final datasets was additionally visually evaluated by the operator and goodness of fit (R2) is calculated for each calibration curve.
# [2] = Plasma protein binding (equilibrium dialysis), dog; type: in vitro ADME; conditions: for fraction unbound at 4 h, 5 µM: equilibrium dialysis, read-out: PPB (%), dog (converted); for recovery at 4 h, 5 µM: plasma (freshly thawed), PPB assay recovery
# Experimental: Prior to the start of the experiment, dialysis membranes (membrane strips, MW cut-off 12-14 kDa, HTDialysis, Cat.NoJl 101) are soaked in deionized water for 60 min, transferred and left overnight in 20% EtOH. The day of experiment, a 10 mM stock solution of the compound in DMSO is diluted with a factor 10 in DMSO. This solution is further diluted in freshly thawed human, rat, mouse or dog plasma (BioIVT) with a final concentration of 5 μM and final DMSO concentration of 0.5%.
# From this solution, an aliquot of 50 μL was taken and matrix matched with an equivalent volume of PBS for the recovery plate, after which 6 volumes of STOP solution were added to the recovery plate. For these recovery plates, no incubation is done.
# Equilibrium Dialysis Device (96-well, model HTD96b, HTDialysis, Cat. No. #1006) is assembled according to manufacturer's instructions. Immediately after assembly, a volume of 100 μL of plasma (spiked with compound) is placed on one side of the well and another 100 μL of blank PBS buffer are added to the other side, respectively. Each compound is tested in duplicate. Acebutolol and Nicardipine are used as low and very high binding controls, except for the mouse, Caffeine is used as low binder instead Acebutolol. If the PPB values for these controls are not in the range determined by the historical data, the assay is not validated.
# The plate is incubated for 4 h at 37° C. while shaking at 230 rpm. Thereafter, an aliquot of 50 μL is taken from each side of the well and matrix matched (mix of equal volumes of spiked plasma with blank PBS buffer and samples from buffer compartment with blank plasma). Matrix matched samples are further mixed with 3 volumes of STOP solution (acetonitrile/MeOH 2/1 with diclofenac as internal standard). After brief mixing and centrifugation (at 2400 rpm for 15 min, at +4° C.), the supernatant is filtered and transferred into new 96-well plates for analysis on LC-MS/MS (systems API4000).
# The percentage of plasma protein bound compound and recovery were calculated using following equations:
# with: • Cplasma=peak area of the compound in the plasma/peak area of the IS in the plasma • Cbuffer=peak area of the compound in the buffer/peak area of the IS in the buffer • ‘Concentration’ is the ratio between compound and IS peak areas
# The recovery is a control, which allows to be sure that the compound has not a non-specific binding to the plates or is not stable in the plasma in these conditions:
# with: • PBS=(ratio of the peak area of the compound/peak area of the IS) in the PBS compartment after 4 h • Plasma=(ratio of the peak area of the compound/peak area of IS) in the plasma compartment after 4 h • Recov=Recovery=ratio of the peak are of the compound I the well recovery/peak area of the IS in the well recovery at TO […]
# [3] = Thermodynamic solubility protocol 2 (FaSSIF, FeSSIF); type: physicochemical; conditions: 25° C.
# Experimental: In a 8 mL glass vial, 1-2 mg of dry matter of the test compound were mixed with the suitable buffers (Fed State Simulated Intestine Fluid (FeSSIF) or Fasted State Simulated Intestine Fluid (FaSSIF)) to reach a theoretical concentration of 4 mM. The solutions were allowed to further equilibrate at 25° C. on a thermostatic shaker. After 4 and 24 hours of shaking, respectively, the incubation mixtures were filtered through HTS filter plates using a vacuum manifold. The filtrates of test compounds were diluted 500-fold with acetonitrile/buffer mixtures with 2% DMSO before measuring. In parallel, using a 20 mM DMSO stock solution, compound dilutions in 50% acetonitrile/buffer (v/v) were prepared to the theoretical concentrations of 0 μM (blank), 10 μM, 25 μM, 50 μM, 100 μM and 200 μM with 2% final DMSO to generate calibration curves. Calibration standards were diluted 100-fold with 50% acetonitrile/water (v/v) mixes before LC-MS/MS measurement (systems API4000 QTRAP).
# [4] = Metabolic stability in hepatocytes, human; type: in vitro ADME; conditions: pooled cryopreserved hepatocytes, read-out: Human Clint (μL/min/10^6 cells)
Structure (SMILES),TSOL pH 3.0 ([1]; time point 4 h) [μM],TSOL pH 7.4 ([1]; time point 4 h) [μM],TSOL pH 3.0 ([1]; time point 24 h) [μM],TSOL pH 7.4 ([1]; time point 24 h) [μM],"fraction unbound at 4 h, 5 µM [2]","recovery at 4 h, 5 µM [2] [%]",TSOL FaSSIF pH 6.5 ([3]; time point 4 h) [μM],TSOL FeSSIF pH 5.0 ([3]; time point 4 h) [μM],TSOL FaSSIF pH 6.5 ([3]; time point 24 h) [μM],TSOL FeSSIF pH 5.0 ([3]; time point 24 h) [μM],hepatocyte CLint at 1 µM [4] [µL/min/1e6 cells]
"CC(C)Cc1cc(F)c(-c2nn[nH]n2)c(N2CCN(Cc3cccnn3)[C@@H](C)C2)c1 [Compound A-174, 3-[[(2S)-4-[3-fluoro-5-isobutyl-2-(2H-tetrazol-5-yl)phenyl]-2-methyl-piperazin-1-yl]methyl]pyridazine]",≥400,>400,≥400,>400,0.062,97,>400,>400,>400,>400,< 2.9
"CC(C)Cc1cc(F)c(-c2nn[nH]n2)c(N2CCN(Cc3ccccn3)[C@@H](C)C2)c1 [Compound A-217, (2S)-4-[3-fluoro-5-isobutyl-2-(2H-tetrazol-5-yl)phenyl]-2-methyl-1-(2-pyridylmethyl)piperazine]",,,,,0.042,96,,,,,5.8

# — patent publication US20240368133A1, “Compounds for the Treatment of Pain, in Particular, Neuropathic Pain, and/or Other Diseases or Disorders that are Associated with AT2R and/or AT2R Mediated Signaling” (Confo Therapeutics N.V., priority 2021, published 2024)
